Results from ChEMBL document CHEMBL3045809, “Susceptibility of adult Trichogramma nubilale (Hymenoptera: Trichogrammatidae) to selected insecticides with different modes of action” (Crop Prot, 2012).

Each compound was assayed on Trichogramma nubilale (assay: Contact toxicity against Trichogramma nubilale assessed as mortality after 24 hr by modified slight dry film method).
Format: functional
In the case of CC1(C)[C@H](/C=C(\Cl)C(F)(F)F)[C@@H]1C(=O)O[C@@H](C#N)c1cccc(Oc2ccccc2)c1 (relative stereo) [REL-LAMBDA CYHALOTHRIN], the LC50 is reported as 13.69 mgAi/L and the LC95 is reported as 127.6 mgAi/L.
Compound CC[C@H](C)[C@H]1O[C@]2(C=C[C@@H]1C)C[C@@H]1C[C@@H](C/C=C(\C)[C@@H](O[C@H]3C[C@H](OC)[C@@H](O[C@H]4C[C@H](OC)[C@@H](O)[C@H](C)O4)[C@H](C)O3)[C@@H](C)/C=C/C=C3\CO[C@@H]4[C@H](O)C(C)=C[C@@H](C(=O)O1)[C@]34O)O2.CO[C@H]1C[C@H](O[C@H]2[C@H](C)O[C@@H](O[C@@H]3/C(C)=C/C[C@@H]4C[C@@H](C[C@]5(C=C[C@H](C)[C@@H](C(C)C)O5)O4)OC(=O)[C@@H]4C=C(C)[C@@H](O)[C@H]5OC/C(=C\C=C\[C@@H]3C)[C@]54O)C[C@@H]2OC)O[C@@H](C)[C@@H]1O [ABAMECTIN] has an LC50 of 3.57 mgAi/L and an LC95 of 25.42 mgAi/L.
Work on C/C(=N\C#N)N(C)Cc1ccc(Cl)nc1 [ACETAMIPRID] yielded an LC50 of 19.24 mgAi/L and an LC95 of 167.9 mgAi/L.
CC1(C)C(C=C(Cl)Cl)C1C(=O)OC(C#N)c1cccc(Oc2ccccc2)c1 (stereo not drawn) [ALPHA-CYPERMETHRIN] gave an LC50 of 19.48 mgAi/L and an LC95 of 176.8 mgAi/L.
In the case of C=C(C)CNc1c([S+]([O-])C(F)(F)F)c(C#N)nn1-c1c(Cl)cc(C(F)(F)F)cc1Cl (stereo not given) [BUTENE-FIPRONIL], the LC50 is reported as 0.0068 mgAi/L and the LC95 is reported as 0.0419 mgAi/L.
CNC(=O)Oc1cccc2ccccc12 [CARBARIL] was tested, and the LC95 was 5.71 mgAi/L.
For CCCCN(CCCC)SN(C)C(=O)Oc1cccc2c1OC(C)(C)C2 [CARBOSULFAN], the LC50 was 0.95 mgAi/L and the LC95 was 7.4 mgAi/L.
With O=C(NC(=O)c1c(F)cccc1F)Nc1cc(Cl)c(Oc2ncc(C(F)(F)F)cc2Cl)c(Cl)c1 [CHLORFLUAZURON] the LC50 was 7533 mgAi/L and the LC95 was 111205 mgAi/L.
CCOP(=S)(OCC)Oc1nc(Cl)c(Cl)cc1Cl [CHLORPYRIFOS] was tested, and the LC50 was 0.081 mgAi/L and the LC95 was 0.45 mgAi/L.
CC1(C)C(/C=C(\Cl)C(F)(F)F)C1C(=O)OC(C#N)c1cccc(Oc2ccccc2)c1 (stereo not given) [CYHALOTHRIN] was tested, and the LC50 was 10.98 mgAi/L and the LC95 was 93.25 mgAi/L.
With CC[S+]([O-])c1c(C#N)nn(-c2c(Cl)cc(C(F)(F)F)cc2Cl)c1N (stereo not given) [ETHIPROLE] the LC50 was 4.67 mgAi/L and the LC95 was 21.35 mgAi/L.
In the case of COP(=S)(OC)Oc1ccc([N+](=O)[O-])c(C)c1 [FENITROTHION], the LC50 is reported as 2.1 mgAi/L and the LC95 is reported as 34.74 mgAi/L.
For CC1(C)C(C(=O)OC(C#N)c2cccc(Oc3ccccc3)c2)C1(C)C (stereo not given) [FENPROPATHRIN], the LC50 was 150.3 mgAi/L and the LC95 was 1327.5 mgAi/L.
N#Cc1nn(-c2c(Cl)cc(C(F)(F)F)cc2Cl)c(N)c1[S+]([O-])C(F)(F)F (stereo not given) [FIPRONIL] showed an LC50 of 0.29 mgAi/L and an LC95 of 1.82 mgAi/L.
Work on O=C(NC(=O)c1c(F)cccc1F)Nc1cc(Cl)c(OC(F)(F)C(F)F)c(Cl)c1 [HEXAFLUMURON] yielded an LC50 of 9672 mgAi/L and an LC95 of 51197 mgAi/L.
Compound O=[N+]([O-])/N=C1\NCCN1Cc1ccc(Cl)nc1 [IMIDACLOPRID] has an LC50 of 311.9 mgAi/L and an LC95 of 2675 mgAi/L.
Compound O=[N+]([O-])/N=C1\NCCN1Cc1cnc(Cl)s1 [IMIDACLOTHIZ] has an LC50 of 75.27 mgAi/L and an LC95 of 636.5 mgAi/L.
In the case of CNC(=O)Oc1ccccc1C(C)C [ISOPROCARB], the LC50 is reported as 0.12 mgAi/L and the LC95 is reported as 0.95 mgAi/L.
CNC(=O)Oc1cccc(C)c1 [METOLCARB] was tested, and the LC50 was 0.53 mgAi/L and the LC95 was 5.2 mgAi/L.
CCN(Cc1ccc(Cl)nc1)/C(=C/[N+](=O)[O-])NC [NITENPYRAM] was tested, and the LC50 was 4.37 mgAi/L and the LC95 was 31.37 mgAi/L.
In the case of CCOP(=S)(OCC)O/N=C(\C#N)c1ccccc1 [PHOXIM], the LC50 is reported as 0.14 mgAi/L and the LC95 is reported as 1.35 mgAi/L.
For CCCSP(=O)(OCC)Oc1ccc(Br)cc1Cl (stereo not given) [PROFENOFOS], the LC50 was 0.18 mgAi/L and the LC95 was 1.73 mgAi/L.
CNC(=O)Oc1cc(C)cc(C(C)C)c1 [PROMECARB] showed an LC50 of 0.32 mgAi/L and an LC95 of 1.91 mgAi/L.
For CCc1ccc(C(=O)NN(C(=O)c2cc(C)cc(C)c2)C(C)(C)C)cc1 [TEBUFENOZIDE], the LC50 was 3452 mgAi/L and the LC95 was 21616 mgAi/L.
With N#C/N=C1\SCCN1Cc1ccc(Cl)nc1 [THIACLOPRID] the LC50 was 56.73 mgAi/L and the LC95 was 461.2 mgAi/L.
CN1COCN(Cc2cnc(Cl)s2)/C1=N\[N+](=O)[O-] [THIAMETHOXAM] showed an LC50 of 1.86 mgAi/L and an LC95 of 13.35 mgAi/L.
Compound CCOP(=S)(OCC)Oc1ncn(-c2ccccc2)n1 [TRIAZOPHOS] has an LC50 of 1.81 mgAi/L and an LC95 of 21.65 mgAi/L.

What follows are compounds tested on Trichogramma nubilale.
In the case of IVERMECTIN, the LC50 is reported as 2.36 mgAi/L and the LC95 is reported as 15.2 mgAi/L.
